According to patent US7947818B2, “Heteromolecular metal-humic (chelate) complexes” (priority 2007, dated 2011):

Tests used:
[1] = test system: cucumber plants (sensitive variety, Anico); test: Pot study: foliar Fe content of cucumber plants in basic, calcareous soil; format: in vivo; conditions: Fe dose 4 ppm; after 30 days of cultivation; soil pH=8.04, % CO3=23%
From the text: Study of the effect of applying a heteromolecular humate-iron citrate complex in cucumber plants (sensitive variety, Anico) cultivated in a basic (pH=8.04), calcareous (% CO3=23%) soil. In this study, performed in pots, the effect of the synthesis chelate of reference in correcting iron chlorosis (Fe-EDDHA orto-orto isomer) was compared to the effect of the heteromolecular humate-Fe citrate complex prepared according to Example 1; in relation to these compounds' capacity to increase iron absorption in cucumber (v anico) plants sensitive to iron chlorosis. The results obtained after 30 days of cultivation are shown in the following figure, where the Fe-EDDHA chelate orto-orto isomer is called (o,o) and the heteromolecular complex is called (H-Cit). The Fe doses applied were: 4 ppm (o, o) and 4 and 8 ppm (H-Cit).

nectarine trees = test: Field study: iron chlorosis and crop of nectarine trees in basic, calcareous soil; format: in vivo; conditions: dose d1 (5 g of Fe per tree)
Procedure: In this study, the effect of the heteromolecular humate-Fe citrate complex on nectarine trees cultivated in a basic, calcareous soil was analysed. This effect was compared to the effect of an Fe EDDHA chelate of reference. This test was performed in a field with a high chlorotic power, wherein a clear response to the standard Fe chelate (Fe EDDHA) is not observed.

Molecule: O=C([O-])C(NCCNC(C(=O)[O-])c1ccccc1[O-])c1ccccc1[O-].[Fe+3] (single isomer, unassigned) [(o,o), Fe-EDDHA orto-orto isomer]
- increase in foliar Fe content [1]: approximately 50%

Molecule: Fe EDDHA [FeEDDHA]
- Commercial production increase with respect to control (nectarine trees): +57.9
- Crop 21 days after treatment (nectarine trees): 5.8 kg/tree
- Green colour (1-10) 62 days post-treatment (nectarine trees; leaves' green colour): 5.3
- Green colour (1-10) 85 days post-treatment (nectarine trees; leaves' green colour): 5.9
